Measured values as given in patent publication US20070123571A1, “Use of a compound in the treatment of sleep disorders” (priority 2003, published 2007).
Where a name gives a salt, the structure may show the parent alone.

Legend:
[1] = Loughborough sleep log, morning log: awoke refreshed / quality of sleep responses; format: in vivo, human
Description: Typically, the percentage of individuals who, after taking a dose of triprolidine before sleeptime, wake refreshed after sleeping is in the range 1-100%, more typically, 5-70%, most typically 10-35%. An especially typical range as aforesaid is 15-30% or even more especially 20-30%. Typically, by the terms “waking refreshed” or “wake refreshed” is meant that an individual felt at least refreshed on waking, preferably, the terms are defined as the individual felt very refreshed or refreshed in accordance with the Loughborough sleep log.
The degree of refreshedness and quality of sleep may be determined by the “morning” log of the Loughborough sleep log with the highest degree of refreshedness or quality of sleep being represented as 1 and the lowest being represented as 5. Accordingly, the percentage increase in refreshedness or quality of sleep is measured in this context by the decrease in the mean refreshedness or quality of sleep.
Preferably, by the use of the present invention, the response of awakening very refreshed or refreshed, as determined, for instance, by the morning log of the Loughborough sleep log, is improved by at least 20%, more preferably, by at least, 30%, most preferably by at least 40%, as compared with an equivalent dose of placebo.
Preferably, by the use of the present invention, the response of sleeping extremely well or very well, as determined, for instance, in accordance with the morning log of the Loughborough sleep log, is improved by at least 20%, more preferably, at least, 35%, most preferably at least 50%, as compared with an equivalent dose of placebo.
Preferably, by the use of the present invention, the response of sleeping extremely well or very well, as determined, for instance, in accordance with the morning log of the Loughborough sleep log, is found for at least 20% of individuals, more preferably, at least 25%, most preferably, at least 30%. For example over 35% of individuals had such a response.

[2] = single doses 10 mg or 20 mg sustained release at bedtime, volunteers, compared with placebo; cited from earlier work
[3] = Karolinska 9-point scale: alertness / sleepiness on waking; format: in vivo, human
Description: By the term felt alert is meant that an individual felt at least alert on waking. Preferably, the term is defined as the individual felt alert, very alert or extremely alert in accordance with the Karolinska 9-point scale. By the term felt sleepy is meant that an individual felt sleepy on waking. Preferably, the term is defined as the individual felt sleepy or very sleepy in accordance with points 8 or 9 of the Karolinska 9-point scale. Preferably, by the use of the present invention, the response of feeling extremely alert, very alert or alert as determined, for instance, in accordance with the Karolinska 9-point scale, is improved by at least 2%, more preferably, by at least, 5%, most preferably by at least 10%, as compared with an equivalent dose of placebo. Preferably, by the use of the present invention, the response of feeling sleepy and needing to make some effort to stay awake or very sleepy, as determined, for instance, in accordance with points 8 and 9 of the Karolinska 9 point scale, is improved (i.e. decreased) by at least 2%, more preferably, by at least, 4%, most preferably, by at least 10%, as compared with an equivalent dose of placebo.

## Cc1ccc(/C(=C\CN2CCCC2)c2ccccn2)cc1 [TRP•HCl•H2O]
[1]; 2.5 mg dose, Monday
  Loughborough Sleep Log: Awoke Very Refreshed or Refreshed Responses: 23%
  Loughborough Sleep Log: Last Night I Slept Extremely Well or Very Well Responses: 41.4%
[1]; 2.5 mg dose, Tuesday
  Loughborough Sleep Log: Awoke Very Refreshed or Refreshed Responses: 23%
  Loughborough Sleep Log: Last Night I Slept Extremely Well or Very Well Responses: 41.8%
[1]; 2.5 mg dose, Wednesday
  Loughborough Sleep Log: Awoke Very Refreshed or Refreshed Responses: 25.8%
  Loughborough Sleep Log: Last Night I Slept Extremely Well or Very Well Responses: 37.9%
[1]; 5 mg dose, Monday
  Loughborough Sleep Log: Awoke Very Refreshed or Refreshed Responses: 11.5%
  Loughborough Sleep Log: Last Night I Slept Extremely Well or Very Well Responses: 50.9%
[1]; 5 mg dose, Tuesday
  Loughborough Sleep Log: Awoke Very Refreshed or Refreshed Responses: 8.2%
  Loughborough Sleep Log: Last Night I Slept Extremely Well or Very Well Responses: 28.8%
[1]; 5 mg dose, Wednesday
  Loughborough Sleep Log: Awoke Very Refreshed or Refreshed Responses: 14.8%
  Loughborough Sleep Log: Last Night I Slept Extremely Well or Very Well Responses: 39.3%
[2]
  sleep onset latency (time required to fall asleep): did not significantly alter
  total sleep time: no effect
  wakefulness during sleep: no effect
[3]; 2.5 mg dose, Monday
  (b) I feel (i) sleepy, [and need to make] some effort or (ii) very sleepy, a great effort to keep awake: 11.5%
  Karolinska 9-point scale (a) I feel extremely alert, very alert or alert: 21.3%
[3]; 2.5 mg dose, Tuesday
  (b) I feel (i) sleepy, [and need to make] some effort or (ii) very sleepy, a great effort to keep awake: 13.1%
  Karolinska 9-point scale (a) I feel extremely alert, very alert or alert: 21.3%
[3]; 2.5 mg dose, Wednesday
  (b) I feel (i) sleepy, [and need to make] some effort or (ii) very sleepy, a great effort to keep awake: 6.5%
  Karolinska 9-point scale (a) I feel extremely alert, very alert or alert: 21.0%
[3]; 5 mg dose, Monday
  (b) I feel (i) sleepy, [and need to make] some effort or (ii) very sleepy, a great effort to keep awake: 12.5%
  Karolinska 9-point scale (a) I feel extremely alert, very alert or alert: 6.3%
[3]; 5 mg dose, Tuesday
  (b) I feel (i) sleepy, [and need to make] some effort or (ii) very sleepy, a great effort to keep awake: 17.5%
  Karolinska 9-point scale (a) I feel extremely alert, very alert or alert: 9.5%
[3]; 5 mg dose, Wednesday
  (b) I feel (i) sleepy, [and need to make] some effort or (ii) very sleepy, a great effort to keep awake: 12.7%
  Karolinska 9-point scale (a) I feel extremely alert, very alert or alert: 17.5%
